# In patent US20220160798A1 (priority 2019, published 2022):
# Key:
# ICR mice [1] = assay: Morris water maze test, scopolamine-induced dementia; format: in vivo
# Protocol: The deterioration of cognitive ability of Aβ1-42 (Amyloid Beta 1-42) was evaluated in 4-week-old male mice. ICR mice (Bio Link, Eumseong-gun, Chungbuk, Korea) were purchased, adapted to an experimental animal room for one week, and randomly consisted of 6 mice in each group. As experimental groups, a group administered with the Spirulina extract (hereinafter, SM70EE) produced by Example 1 by concentration and a group administered with chlorophyll a were used. As a control group, a group without treating a Spirulina extract, and as a comparative group, a group administered with scopolamine causing dementia and a group administered with donepezil as a dementia therapeutic agent were used. […]
# In Experimental Example above, a passive avoidance analysis evaluation test was conducted by applying a Morris's method. […] For adaptation, only the swimming practice was performed for 60 seconds without a platform on the first day of the experiment, a test trial was performed for 4 days in the pool disposed with the platform from the second day, and then escape latency time which was time taken for experimental mice administered with a drug to escape on the platform was measured. […]
# ICR mice [2] = assay: Passive avoidance test, scopolamine-induced dementia; format: in vivo
# Protocol: The deterioration of cognitive ability of Aβ1-42 (Amyloid Beta 1-42) was evaluated in 4-week-old male mice. ICR mice (Bio Link, Eumseong-gun, Chungbuk, Korea) were purchased, adapted to an experimental animal room for one week, and randomly consisted of 6 mice in each group. As experimental groups, a group administered with the Spirulina extract (hereinafter, SM70EE) produced by Example 1 by concentration and a group administered with chlorophyll a were used. As a control group, a group without treating a Spirulina extract, and as a comparative group, a group administered with scopolamine causing dementia and a group administered with donepezil as a dementia therapeutic agent were used. During the adaptation period, the feed and water were freely supplied without limitation, and the temperature of 22±2° C. and the humidity of 50±10% were maintained, and the contrast was adjusted to a period of 12 hours (09:00 to 21:00).
# An avoidance box (40×20×20 cm) of a passive avoidance measuring device was divided into a light box and a dark box, and a door was installed between the rooms so that the experimental mice moved. […]
# After 24 hours, the same test was conducted, and the escape latency time while the experimental mice moved was measured. […]
Structure (SMILES),"escape latency time (ICR mice [1]; scopolamine only, 1 mg/kg s.c.)","latency time (ICR mice [2]; scopolamine only, 1 mg/kg s.c., vs control group)","escape latency time (ICR mice [1]; 10 mg/kg oral, scopolamine 1 mg/kg s.c.)","latency time (ICR mice [2]; 10 mg/kg oral, scopolamine 1 mg/kg s.c., vs scopolamine group)"
CN1[C@@H]2C[C@@H](OC(=O)[C@H](CO)c3ccccc3)C[C@H]1[C@@H]1O[C@@H]12 [scopolamine],increased,significantly reduced,,
C=Cc1c(C)c2cc3nc(c4c5[n-]c(cc6nc(cc1[n-]2)C(C)=C6CC)c(C)c5C(=O)[C@@H]4C(=O)OC)[C@@H](CCC(=O)OC/C=C(\C)CCC[C@H](C)CCC[C@H](C)CCCC(C)C)[C@@H]3C.[Mg+2] [chlorophyll a],,,decreased,increased
